# Source: patent US20180243421A1, “IMMUNOSTIMULATING AGENT” (AJINOMOTO CO., INC., priority 2015, published 2018)
# Tests used:
# [1] = test system: anti-OVA-specific IgG1 subclass antibody; assay: Adjuvant activity: anti-OVA-specific IgG1 subclass antibody in serum after secondary immunization (Examples 12, 19, 20, 21); type: in vivo, BALB/c mice; conditions: two weeks from secondary immunization
# Protocol: 8-Week-old female BALB/c mice were divided into groups (N=6), and each group was primarily immunized by dorsal-subcutaneous administration of (1) ovalbumin (OVA) (5 μg) dissolved in saline as an antigen (OVA single administration group), (2) OVA (5 μg) added to 5% αCD-added saline, (3) OVA (5 μg) added to 10% HP-β-CD-added saline, (4) OVA (5 μg) and SZ62 (0.256 μmol) dissolved or dispersed in 5% αCD-added saline, and (5) OVA (5 μg) and SZ62 (0.256 μmol) dissolved in 10% HP-β-CD-added saline, each per mouse. One week later, the secondary immunization was carried out by dorsal-subcutaneous administration of solutions or dispersions similar to those of the above-mentioned (1) to (5) again. Two weeks from the secondary immunization, the blood was extracted under anesthesia, and the obtained serum samples were measured for anti-OVA-specific IgG1 subclass antibody.
# Measurement Method of Concentration of anti-OVA-specific IgG1 Subclass Antibody and anti-OVA-specific IgG2a Subclass Antibody
# To a 96 well plate was added 5 μg/ml OVA at 100 μl/well, and the mixture was incubated at 4° C. overnight. After incubation, the mixture was washed three times with 200 μl of PBS-T (PBS+0.05% (v/v) Tween 20) per well, and blocked with 100 μl of 5% FCS/PBS solution per well at room temperature for 1 to for 2 hr. Thereafter, the mixture was washed three times with PBS-T (200 μl/well), a diluted serum sample (100 μl/well) or the same amount of 5% FCS/PBS solution as a control was added, to and the mixture was incubated at 37° C. for 1 hr. To calculate concentration of the antibody, the standard of an anti-OVA-specific IgG1 subclass antibody diluted with 2% FCS/PBS solution was added at 100 ng/ml, 50 ng/ml, 25 ng/ml, 12.5 ng/ml, 6.25 ng/ml, 3.125 ng/ml, 1.56 ng/ml, 0.781 ng/ml, 0.391 ng/ml, 0.195 ng/ml, 0.098 ng/ml, 0 ng/ml, per 1 well. When an anti-OVA-specific IgG2a subclass antibody was measured, the standard of an anti-OVA-specific IgG2a subclass antibody was added at 50 ng/ml, 25 ng/ml, 12,5 ng/ml, 6.25 ng/ml, 3.125 ng/ml, 1.56 ng/ml, 0.781 ng/ml, 0.391 ng/ml, 0.195 ng/ml, 0.098 ng/ml, 0.049 ng/ml, 0 ng/ml, per 1 well. […] Thereafter, the mixture was washed five times with PBS-T (200 μl/well), a diluted anti-biotin-HRP antibody was added (100 μl/well), and the mixture was incubated at 37° C. for another 30 min. Thereafter, the mixture was washed five times with PBS-T (200 μl/well), TMB substrate solution was added (100 μl/well), and the mixture was incubated at room temperature for 10- for 15 min. Thereafter, a reaction quenching liquid (2N sulfuric acid solution) was added (50 μl/well) to discontinue a color developing reaction, and the absorbance (OD Value=450 nm) was measured by a microplate reader. A standard curve was drawn from the measured OD values, and the concentration was calculated.
# 8-Week-old female BALB/c mice were divided into groups (N=6), and each group was primarily immunized by dorsal-subcutaneous administration of (1) ovalbumin (OVA) (5 μg) dissolved in saline as an antigen (OVA single administration group), (2) OVA 10 μg and Addavax™ (mixed with saline at 1:1) dissolved in saline (Addavax™ administration group), (3) OVA (5 μg) and SZ86 (0.256 μmol) dissolved or dispersed in 5% αCD-added saline (SZ86 administration group), (4) OVA (5 μg) and SZ90 (0.256 μmol) dissolved or dispersed in 5% αCD-added saline (SZ90 administration group), (5) OVA (5 μg) and SZ92 (0.256 μmol) dissolved or dispersed in 5% αCD-added saline (SZ92 administration group), (6) OVA (5 μg) and SZ99 (0.256 μmol) dissolved or dispersed in 5% αCD-added saline (SZ99 administration group), (7) OVA (5 μg) and SZ106 (0.256 μmol) dissolved or dispersed in 5% αCD-added saline (SZ106 administration group), each per mouse. One week later, the secondary immunization was carried out by dorsal-subcutaneous administration of solutions or dispersions similar to those of the above-mentioned (1)-(7) again.
# [2] = test system: anti-influenza IgA antibody; assay: Transnasal influenza vaccine adjuvant activity: anti-influenza IgA antibody in nasal cavity wash; type: in vivo, BALB/c mice; conditions: Example 4, influenza HA vaccine 20 μl, SZ62 1 μg, Poly(I:C) 5 μg, two weeks from secondary immunization
# [3] = Dispersibility study: turbidity in cyclodextrin-added saline; type: physicochemical; conditions: Example 11; SZ62 0.256 μmol in 1 mL; absorbance 650 nm, ratio to kaolinite
# Protocol: N-hexadecanoylagmatine (SZ62: compound wherein group corresponding to R^7 in formula (II) is C15 alkyl group) (0.256 μmol) was separated in a 2 mL tube containing zilconia beads, 1 mL of 5% αCD-added saline or 10% 2-hydroxypropyl-β-cyclodextrin (hereinafter to be also simply referred to as HP-β-CD)-added saline was added and the mixture was stirred. Thereafter, the absorbance (OD Value=650 nm) was measured by a microplate reader, and the turbidity was calculated as an index of dispersibility. The measurement method of the turbidity was as follows.
# Measurement Method of Turbidity
# SZ62 (0.256 μmol) was dispensed to a 2 mL tube containing zirconia beads, 5% αCD-added saline or 10% HP-β-CD-added saline (1 mL) was added, and the mixture was vigorously stirred three times under conditions of one time for 3.15 seconds at 6000 rpm. The mixture was dispensed by 200 μL to a 96 well plate, and the absorbance (OD Value=650 nm) was measured by a microplate reader. As a control, kaolinite (1 mg) was dissolved in distilled water (1 L), and the absorbance (OD Value=650 nm) was measured by a microplate reader. The absorbance thereof (OD Value=650 nm) was defined to be turbidity: 1, and the turbidity of each sample was calculated from the ratio with the measured value of kaolinite.
# [4] = Example 19, OVA 5 μg + 0.256 μmol in 5% αCD saline s.c. (Addavax 1:1 with OVA 10 μg)
# [5] = Example 20, OVA 5 μg + 0.256 μmol in 5% αCD saline s.c. (Addavax 1:1 with OVA 10 μg)
Structure (SMILES),"anti-OVA-specific IgG1 subclass antibody production as compared to the OVA single administration group [1, 4]","anti-OVA-specific IgG1 subclass antibody production as compared to the OVA single administration group [1, 5]",other results
"CCCCCCCCCCCCCCCCCCCCCC(=O)N[C@@H](CCC(=O)O)C(=O)N(CC)CC [SZ106, N^2-docosanoyl-N^1,N^1-diethyl-L-glutamic acid 1-amide]",tended to increase,tended to increase,–
"CCCCCCCCCCCCCCCC(=O)N[C@@H](CC(C)C)C(=O)OCCCCCC [SZ97, N-hexadecanoyl-L-leucine hexyl ester]",–,significantly increased,–
"CCCCCCCCCCCCCCCC(=O)NC(=N)NCCCCN [SZ62, N-hexadecanoylagmatine]",–,–,"anti-influenza IgA antibody production in nasal cavity wash as compared to the influenza vaccine single administration group [2]: significantly increased; turbidity after addition of 10% HP-β-CD-added saline and stirring, versus turbidity after addition of 5% αCD-added saline [3]: significantly lower; anti-OVA-specific IgG1 subclass antibody production as compared to the OVA single administration group ([1]; Example 12, SZ62 0.256 μmol dispersed in 5% αCD-added saline, OVA 5 μg s.c.): significantly increased; anti-OVA-specific IgG1 subclass antibody production as compared to the OVA single administration group ([1]; Example 12, SZ62 0.256 μmol dissolved in 10% HP-β-CD-added saline, OVA 5 μg s.c.): significantly increased"
"CCCCCCCCCCCCCCCC(=O)N[C@@H](CCCNC(=N)N)C(=O)OCCCCCC.Cl [SZ99, N^2-hexadecanoyl-L-arginine hexyl ester hydrochloride salt]",tended to increase,–,–
"CCCCCCCCCCCCCCCCCCC(CCCCCCCCCCCCCCCCCC)C(=O)N[C@@H](CC(C)C)C(=O)OC [SZ86, N-(2-octadecyleicosanoyl)-L-leucine methyl ester]",tended to increase,tended to increase,–
"CCCCCCCCCCCCCCCC(=O)N[C@@H](CC(C)C)C(=O)N(CC)CC [SZ92, N^2-hexadecanoyl-N^1,N^1-diethyl-L-leucinamide]",significantly increased,significantly increased,–
"CCCCCCCCCCCCCCCCCCCCCC(=O)NC(=N)NCCCCN.Cl [SZ108, N-docosanoylagmatine hydrochloride salt]",–,tended to increase,–
